Results taken from patent publication US8227492B2, “Sulfoxamine derivatives as factor Xa inhibitors” (Cadila Healthcare Limited, priority 2007, dated 2012).

Experiments:
[1] = system: human plasma; assay: Prothrombin time doubling concentration (PTCT2) using human plasma; type: biochemical
Description: (§1) In vitro Factor Xa inhibitory activities were determined as per standard protocols and the results of representative compounds are provided in tables 1 and 2 below as proof of the efficacies of the novel class of compounds disclosed above.

[2] = target: Factor Xa (Homo sapiens, UniProt P00742); assay: In vitro Factor Xa inhibition, chromogenic assay; type: biochemical; settings: 0.1 μM compound; for inhibition at 0.1 µM: read-out: % Factor Xa inhibition at 0.1 μM using chromogenic assay
Description: as §1

Sequence of Factor Xa (P00742 235-488 limits assumed): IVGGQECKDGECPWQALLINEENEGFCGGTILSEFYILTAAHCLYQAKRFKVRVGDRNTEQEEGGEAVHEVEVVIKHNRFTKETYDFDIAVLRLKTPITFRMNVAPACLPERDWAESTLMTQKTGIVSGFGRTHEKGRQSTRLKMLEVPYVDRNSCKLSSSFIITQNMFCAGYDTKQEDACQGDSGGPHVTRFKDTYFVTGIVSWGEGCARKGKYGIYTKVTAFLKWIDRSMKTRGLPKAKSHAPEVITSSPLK
Sequence of Factor Xa (P00742 41-179 partner limits assumed): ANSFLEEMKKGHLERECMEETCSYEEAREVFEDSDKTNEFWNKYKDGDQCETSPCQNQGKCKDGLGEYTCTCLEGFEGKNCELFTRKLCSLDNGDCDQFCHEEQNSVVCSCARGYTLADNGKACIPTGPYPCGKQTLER

In the case of `CCN(CC)CCN=S(C)(=O)c1ccc(C(=O)Nc2ccc(Cl)cc2C(=O)Nc2ccc(Cl)cn2)cc1` (stereo not drawn) [Example 74, S-[4-(N-{2-[N-(5-chloro(2-pyridyl))carbamoyl]-4-chlorophenyl}carbamoyl)phenyl]-S-methyl-N-(2-(diethylamino)ethyl)sulfoximide], the “PTCT2 (Conc. required to double the prothrombin time using human plasma)” value (“PTCT2” for short) [1] is reported as 1.23 µM and the inhibition at 0.1 µM [2] is reported as 77%.

With `CS(=N)(=O)c1ccc(C(=O)Nc2ccc(Cl)cc2C(=O)Nc2ccc(Cl)cn2)cc1` (stereo not drawn) [Example 1, S-[4-(N-{2-[N-(5-chloro(2-pyridyl))carbamoyl]-4-chlorophenyl}carbamoyl)phenyl]-S-methyl Sulfoximide] the inhibition at 0.1 µM [2] was 75%.

In the case of `CS(=O)(=NCCN1CCCC1)c1ccc(C(=O)Nc2ccc(Cl)cc2C(=O)Nc2ccc(Cl)cn2)cc1` (stereo not drawn) [Example 75, S-[4-(N-{2-[N-(5-chloro(2-pyridyl))carbamoyl]-4-chlorophenyl}carbamoyl)phenyl]-S-methyl-N-(2-(pyrrolidin-1-yl)ethyl)sulfoximide], the “PTCT2” value [1] is reported as 0.98 µM and the inhibition at 0.1 µM [2] is reported as 74%.

Compound `CS(=O)(=O)N=S(C)(=O)c1ccccc1-c1ccc(C(=O)Nc2ccc(Cl)cc2C(=O)Nc2ccc(Cl)cn2)cc1` (stereo not drawn) [Example 14, S-(2-[4-(N-{2-[N-(5-chloro-2-pyridyl)carbamoyl]-4-chlorophenyl}carbamoyl)phenyl]-phenyl)-S-methyl-N-methanesulfonyl sulfoximide] has an inhibition at 0.1 µM [2] of 84%.

In the case of `CS(=O)(=NC(=O)CN1CCCCC1)c1ccc(C(=O)Nc2ccc(Cl)cc2C(=O)Nc2ccc(Cl)cn2)cc1` (stereo not drawn) [Example 52, S-[4-(N-{2-[N-(5-chloro(2-pyridyl))carbamoyl]-4-chlorophenyl}carbamoyl)phenyl]-S-methyl-N-[(2-piperidin-1-yl)-acetyl]sulfoximide], the inhibition at 0.1 µM [2] is reported as 60%.

For `CN(C)CC(=O)N=S(C)(=O)c1ccccc1-c1ccc(C(=O)Nc2ccc(Cl)cc2C(=O)Nc2ccc(Cl)cn2)cc1` (stereo not drawn) [Example 41, S-(2-[4-(N-{2-[N-(5-chloro-2-pyridyl)carbamoyl]-4-chlorophenyl}carbamoyl)phenyl]-phenyl)-S-methyl-N-(2-dimethylamino-acetyl)sulfoximide], the “PTCT2” value [1] was 1.9 µM and the inhibition at 0.1 µM [2] was 95%.

`CS(=O)(=NC(=O)c1ccncc1)c1ccccc1-c1ccc(C(=O)Nc2ccc(Cl)cc2C(=O)Nc2ccc(Cl)cn2)cc1` (stereo not drawn) [Example 24, S-(2-[4-(N-{2-[N-(5-chloro-2-pyridyl)carbamoyl]-4-chlorophenyl}carbamoyl)phenyl]-phenyl)-S-methyl-N-(4-pyridylcarbonyl)sulfoximide] was tested, and the inhibition at 0.1 µM [2] was 85%.

In the case of `CCN(CC)CC(=O)N=S(C)(=O)c1ccc(C(=O)Nc2ccc(Cl)cc2C(=O)Nc2ccc(Cl)cn2)cc1` (stereo not drawn) [Example 42, S-[4-(N-{2-[N-(5-chloro(2-pyridyl))carbamoyl]-4-chlorophenyl}carbamoyl)phenyl]-S-methyl-N-(2-diethylamino-acetyl)sulfoximide], the “PTCT2” value [1] is reported as 0.7 µM and the inhibition at 0.1 µM [2] is reported as 70%.

`CCN(CC)CC(=O)N=S(C)(=O)c1ccccc1-c1ccc(C(=O)Nc2ccc(Cl)cc2C(=O)Nc2ccc(Cl)cn2)cc1` (stereo not drawn) [Example 43, S-(2-[4-(N-{2-[N-(5-chloro-2-pyridyl)carbamoyl]-4-chlorophenyl}carbamoyl)phenyl]-phenyl)-S-methyl-N-(2-diethylamino-acetyl)sulfoximide] showed an inhibition at 0.1 µM [2] of 79%.

Work on `CS(=O)(=NC(=O)C1CCNCC1)c1ccccc1-c1ccc(C(=O)Nc2ccc(Cl)cc2C(=O)Nc2ccc(Cl)cn2)cc1` (stereo not drawn) [Example 26, S-(2-[4-(N-{2-[N-(5-chloro-2-pyridyl)carbamoyl]-4-chlorophenyl}carbamoyl)phenyl]-phenyl)-S-methyl-N-(4-piperidinylcarbonyl)sulfoximide] yielded an inhibition at 0.1 µM [2] of 69%.

`CS(=O)(=NC(=O)CN1CCCC1)c1ccc(C(=O)Nc2ccc(Cl)cc2C(=O)Nc2ccc(Cl)cn2)cc1` (stereo not drawn) [Example 50, S-[4-(N-{2-[N-(5-chloro(2-pyridyl))carbamoyl]-4-chlorophenyl}carbamoyl)phenyl]-S-methyl-N-[(2-pyrrolidin-1-yl)-acetyl]sulfoximide] was tested, and the “PTCT2” value [1] was 0.68 µM and the inhibition at 0.1 µM [2] was 64%.

For `CS(=N)(=O)c1ccccc1-c1ccc(C(=O)Nc2ccc(Cl)cc2C(=O)Nc2ccc(Cl)cn2)cc1` (stereo not drawn) [Example 4, S-(2-[4-(N-{2-[N-(5-chloro-2-pyridyl)carbamoyl]-4-chlorophenyl}carbamoyl)phenyl]-phenyl)-S-methyl sulfoximide], the “PTCT2” value [1] was 4.1 µM and the inhibition at 0.1 µM [2] was 93%.

Compound `CCN1CCC(C(=O)N=S(C)(=O)c2ccccc2-c2ccc(C(=O)Nc3ccc(Cl)cc3C(=O)Nc3ccc(Cl)cn3)cc2)CC1` (stereo not drawn) [Example 28, S-(2-[4-(N-{2-[N-(5-chloro-2-pyridyl)carbamoyl]-4-chlorophenyl}carbamoyl)phenyl]-phenyl)-S-methyl-N-(1-ethyl-piperidine-4-carbonyl)sulfoximide] has an inhibition at 0.1 µM [2] of 82%.

`CN(C)CCN=S(C)(=O)c1ccc(C(=O)Nc2ccc(Cl)cc2C(=O)Nc2ccc(Cl)cn2)cc1` (stereo not drawn) [Example 76, S-[4-(N-{2-[N-(5-chloro(2-pyridyl))carbamoyl]-4-chlorophenyl}carbamoyl)phenyl]-S-methyl-N-[2-dimethylamino-ethyl]sulfoximide] was tested, and the “PTCT2” value [1] was 1.14 µM and the inhibition at 0.1 µM [2] was 66%.

With “S-(2-[4-(N-{2-[N-(5-chloro-2-pyridyl)carbamoyl]-4-chlorophenyl}carbamoyl)phenyl]-phenyl)-S-methyl-N-[2-(4-aminopiperidinyl)-acetyl]sulfoximide [Example 56]” the “% Factor Xa inhibition at 0.1 μM using chromogenic assay” value [2] was 81%.

`CS(=O)(=NC(=O)CN1CCCCC1)c1ccccc1-c1ccc(C(=O)Nc2ccc(Cl)cc2C(=O)Nc2ccc(Cl)cn2)cc1` (stereo not drawn) [Example 53, S-(2-[4-(N-{2-[N-(5-chloro-2-pyridyl)carbamoyl]-4-chlorophenyl}carbamoyl)phenyl]-phenyl)-S-methyl-N-[(2-piperidin-1-yl)-acetyl]sulfoximide] gave an inhibition at 0.1 µM [2] of 79%.

With `COc1cc(Cl)cc(C(=O)Nc2ccc(Cl)cn2)c1NC(=O)c1ccc(-c2ccccc2S(C)(=N)=O)cc1` (stereo not drawn) [Example 5, S-(2-[4-(N-{2-[N-(5-chloro-2-pyridyl)carbamoyl]-4-chloro-6-methoxyphenyl}carbamoyl)phenyl]-phenyl)-S-methyl Sulfoximide] the “PTCT2” value [1] was 0.69 µM and the inhibition at 0.1 µM [2] was 95%.

In the case of `COc1ccc(NC(=O)c2ccc(S(C)(=O)=NC(=O)CN(C)C)cc2)c(C(=O)Nc2ccc(Cl)cn2)c1` (stereo not drawn) [Example 40, S-[4-(N-{2-[N-(5-chloro(2-pyridyl))carbamoyl]-4-methoxyphenyl}carbamoyl)phenyl]-S-methyl-N-(2-dimethylamino-acetyl)sulfoximide], the “PTCT2” value [1] is reported as 1.2 µM and the inhibition at 0.1 µM [2] is reported as 56%.
